Source: patent US20240090498A1, “ANTIMICROBIAL COMPOSITIONS” (TAKASAGO INTERNATIONAL CORPORATION, priority 2010, published 2024)

What was measured:
Format in all cases: cell-based
[1] = test system: Enterococcus faecalis ATCC 29212; assay: Vapor phase MIC / combined FIC on seeded BHI agar plates in sealed 7 L box; details: ATCC29212, 72 h, E. faecalis, no growth after 3 days at room temperature, read-out: MIC alone (single material, vapor phase)
Description: (§1) Seeded brain heart infusion (BHI) agar plates of Escherichia coli ATCC 10536, Salmonella enterica ATCC13311, Pseudomonas aeruginosa ATCC 15422, Staphylococcus aureus ATCC 6538, Enterococcus faecalis ATCC 29212, and Enterococcus hirae ATCC 10541 were placed in sealed 7 L acrylic boxes and exposed to vapors of trans-2-alkenals (C6 to C11 carbon chain length) and mustard essential oil (MEO) binary combinations.
(§2) The trans-2-alkenals and MEO were weighed neat into a glass jar which was positioned in the box between the seeded agar plates. The concentration of the single materials and binary combinations introduce in the 7 L box were expressed as weight per unit volume of the box (mg/L). Several concentrations ranging from 0.5 mg/L to 43 mg/L of the single materials and combinations were tested for each organism. The vapor phase minimum inhibition concentration (MIC) with “no growth” after 3 days of incubation at room temperature. Fractional Inhibition Concentrations (FIC) was determined to evaluate the antibacterial effect of trans-2-alkenals and MEO combinations in the vapor phase based on the following formula:
(§3) Combined FIC=(MIC of trans-2-alkenalcombination/MIC of trans-2-alkenalalone)+(MIC of MEOcombination/MIC of MEOalone)
(§4) Combined FIC values for trans-2-alkenals and MEO combinations are shown below in Table 1. Combinations with combined FIC equal or less than 0.5 are considered to have a strong synergistic effect.

[2] = test system: Enterococcus hirae ATCC 10541; assay: as above; details: ATCC10541, 72 h, E. hirae, no growth after 3 days at room temperature, read-out: MIC alone (single material, vapor phase)
Description: as §1, §2, §3, §4

[3] = test system: Pseudomonas aeruginosa ATCC 15422; assay: as above; details: ATCC15422, 72 h, P. aeruginosa, no growth after 3 days at room temperature, read-out: MIC alone (single material, vapor phase)
Description: as §1, §2, §3, §4

[4] = test system: Enterococcus hirae ATCC 10541; assay: Vapor phase activity against bacteria (Example 2, growth grading versus control); details: E.h 10541; 7.1 or 9.3 mg/L as defined per composition; sealed 7 L box; further: key: −: No Activity (growth); +: Slight Activity (some growth, but much less than control); ++: Medium Activity (pinprick growth); +++: High Activity (no growth)
Method: (§5) Seeded brain heart infusion (BHI) agar plates of Escherichia coli ATCC 10536, Salmonella enterica ATCC13311, Pseudomonas aeruginosa ATCC 15422, Staphylococcus aureus ATCC 6538, Enterococcus faecalis ATCC 29212, and Enterococcus hirae ATCC 10541 were placed in sealed 7 L acrylic boxes and exposed to vapors of the compositions shown below. A control was established in which the agar plates was not treated with vapors. • Composition A: 9.3 mg/L of trans-2-hexenal • Composition B: 9.3 mg/L of trans-2-heptenal • Composition C: 9.3 mg/L of 2, 4-heptadienal • Composition D: 7.1 mg/L of trans-2-hexenal • Composition E: 7.1 mg/L of 2,4-heptadienal • Composition F: 7.1 mg/L of 2,4-heptadienal+citronellol (1:1) • Composition G: 9.3 mg/L of citronellal+citral DMA (1:1) • Composition H: 9.3 mg/L of benzaldehyde+citral DMA (1:1) • Composition I: 9.3 mg/L of furfural+citronellol (1:1) • Composition J: 7.1 mg/L of citral+citronellal (1:1) • Composition K: 7.1 mg/L of trans-2-hexenal+citronellol (1:1)

[5] = test system: Pseudomonas aeruginosa ATCC 15422; assay: as above; details: P.a. 15442; 7.1 or 9.3 mg/L as defined per composition; sealed 7 L box
Method: as §5

[6] = test system: Enterococcus faecalis ATCC 29212; assay: as above; set-up: key to the marks not given beside the values; details: E.f. 29212; 7.1 or 9.3 mg/L as defined per composition; sealed 7 L box
Method: as §5

[7] = test system: Escherichia coli ATCC 10536; assay: as above; set-up: key to the marks not given beside the values; details: E.c. 10536; 7.1 or 9.3 mg/L as defined per composition; sealed 7 L box
Method: as §5

[8] = test system: Salmonella enterica ATCC13311; assay: as above; set-up: key to the marks not given beside the values; details: S.e. 13311; 7.1 or 9.3 mg/L as defined per composition; sealed 7 L box
Method: as §5

[9] = test system: Staphylococcus aureus ATCC 6538; assay: as above; set-up: key to the marks not given beside the values; details: S.a. 6538; 7.1 or 9.3 mg/L as defined per composition; sealed 7 L box
Method: as §5

[10] = test system: Escherichia coli ATCC 10536; assay: Vapor phase MIC / combined FIC on seeded BHI agar plates in sealed 7 L box; details: ATCC10536, 72 h, E. coli, no growth after 3 days at room temperature, read-out: MIC alone (single material, vapor phase)
Description: as §1, §2, §3, §4

[11] = test system: Salmonella enterica ATCC13311; assay: as above; details: ATCC13311, 72 h, S. enterica, no growth after 3 days at room temperature, read-out: MIC alone (single material, vapor phase)
Description: as §1, §2, §3, §4

[12] = test system: Staphylococcus aureus ATCC 6538; assay: as above; details: ATCC6538, 72 h, S. aureus, no growth after 3 days at room temperature, read-out: MIC alone (single material, vapor phase)
Description: as §1, §2, §3, §4

[13] = test system: E.c. 10536; assay: MIC in solution; details: Escherichia coli
Method: (§6) MIC values were also determined for trans-2 octenal, octanal formulations, and MEO in solution and in the vapor phase.

[14] = test system: E.f. 29212; assay: MIC in solution; details: Enterococcus faecalis
Method: as §6

[15] = test system: E.h. 10541; assay: MIC in solution; details: Enterococcus hirae
Method: as §6

[16] = test system: P.a. 15442; assay: MIC in solution; details: Pseudomonas aeruginosa
Method: as §6

[17] = test system: S.a. 6538; assay: MIC in solution; details: Staphylococcus aureus
Method: as §6

[18] = test system: S.e. 13311; assay: MIC in solution; details: Salmonella enterica
Method: as §6
Wherever Vapor phase activity against bacteria is given: key: −: No Activity (growth); +: Slight Activity (some growth, but much less than control); ++: Medium Activity (pinprick growth); +++: High Activity (no growth).

SMILES | MIC [1] [µg/mL] | MIC [2] [µg/mL] | MIC [3] [µg/mL] | Vapor Phase Activity Against Bacteria [4] | Vapor Phase Activity Against Bacteria [5] | Vapor Phase Activity Against Bacteria [6] | Vapor Phase Activity Against Bacteria [7] | Vapor Phase Activity Against Bacteria [8] | Vapor Phase Activity Against Bacteria [9] | other results
CCC/C=C/C=O [trans-2-hexenal] | 6.4 | 12.8 | 12.8 |  |  |  |  |  |  | 
CCCCCCCC/C=C/C=O [trans-2-undecenal] | 12.8 | 12.8 | 43 |  |  |  |  |  |  | 
CCCCCCC/C=C/C=O [trans-2-decenal] | 6.4 | 6.4 | 43 |  |  |  |  |  |  | 
CCCC/C=C/C=O [Composition B, trans-2-heptenal] |  |  |  | +++ | + | +++ | +++ | +++ | +++ | 
CCC/C=C/C=O [Composition A, trans-2-hexenal] |  |  |  | + | +++ | +++ | +++ | +++ | +++ | 
CCCCC/C=C/C=O [trans-2-octenal] | 43 | 25.6 | 43 |  |  |  |  |  |  | MIC [10]: 43 µg/mL; MIC [11]: 43 µg/mL; MIC [12]: 3.6 µg/mL; MIC [13]: > 125 µg/mL; MIC [14]: > 125 µg/mL; MIC [15]: > 125 µg/mL; MIC [16]: > 125 µg/mL; MIC [17]: > 125 µg/mL; MIC [18]: > 125 µg/mL
CCCC/C=C/C=O [trans-2-heptenal] | 6.4 | 12.8 | 25.6 |  |  |  |  |  |  | 
CCCCCC/C=C/C=O [trans-2-nonenal] | 6.4 | 6.4 | 43 |  |  |  |  |  |  | 
CC/C=C/C=C/C=O [Composition E, 2,4-heptadienal] |  |  |  | + | ++ | ++ | +++ | +++ | +++ | 
CC/C=C/C=C/C=O [Composition C, 2,4-heptadienal] |  |  |  | + | +++ | +++ | +++ | +++ | +++ | 
CCCCCCCC=O [octanal] | 42.4 | 42.4 | 84.8 |  |  |  |  |  |  | MIC [10]: 21.1 µg/mL; MIC [11]: 42.4 µg/mL; MIC [12]: 7.8 µg/mL; MIC [13]: > 125 µg/mL; MIC [14]: > 125 µg/mL; MIC [15]: > 125 µg/mL; MIC [16]: > 125 µg/mL; MIC [17]: > 125 µg/mL; MIC [18]: > 125 µg/mL
